Tests used:
[1] = system: Cabbage Looper (Trichoplusia ni) ("CL"); test: Bioassay on Cabbage Looper (CL), 128-well diet tray assay, percent mortality; format: in vivo; conditions: for CL rating (percent mortality class): Cabbage Looper, 128-well diet tray assay; for pest or weed control at 50 µg/cm2: Trichoplusia ni, read-out: CL
From the text: (§1) Bioassays on Beet Armyworm (Spodoptera exigua) (“BAW”) and Cabbage Looper (Trichoplusia ni) (“CL”)
(§2) BAW has few effective parasites, diseases, or predators to lower its population. BAW infests many weeds, trees, grasses, legumes, and field crops. In various places, it is of economic concern upon asparagus, cotton, corn, soybeans, tobacco, alfalfa, sugar beets, peppers, tomatoes, potatoes, onions, peas, sunflowers, and citrus, among other plants. The Cabbage Looper is a member of the moth family Noctuidae. It is found throughout the world. It is attacks cabbage, cauliflower, broccoli, Brussel sprouts, tomatoes, cucumbers, potatoes, kale, turnips, mustard, peppers, eggplant, watermelons, melons, squash, cantaloupe, peas, beans, collards, lettuce, spinach, celery, parsley, beets, peas, alfalfa, soybeans, and cotton. This species is very destructive to plants due to its voracious consumption of leaves. In the case of cabbage, however, they feed not only on the wrapper leaves, but also may bore into the developing head. The larvae consume three times their weight in plant material daily. The feeding sites are marked by large accumulations of sticky, wet fecal material.
(§3) Consequently, because of the above factors control of these pests is important.
(§4) Certain molecules disclosed in this document were tested against BAW and CEW using procedures described in the following examples. In the reporting of the results, the “BAW & CL Rating Table” was used (See Table Section).
Bioassays on Cabbage Looper in CL
(§5) Trays were covered with a clear self-adhesive cover and held at 25° C., 14:10 light-dark for five to seven days. Percent mortality was recorded for the larvae in each well; activity in the eight wells was then averaged. The results are indicated in the table entitled “Table ABC: Biological Results” (See Table Section).

[2] = system: Beet Armyworm (Spodoptera exigua) ("BAW"); test: Bioassay on Beet Armyworm (BAW), 128-well diet tray assay, percent mortality; format: in vivo; conditions: for BAW rating (percent mortality class): Beet Armyworm, 128-well diet tray assay
From the text: as §1, §2, §3, §4, §5

| Compound | CL rating (percent mortality class) [1] | BAW rating (percent mortality class) [2] | pest or weed control at 50 µg/cm2 [1] [%] | pest or weed control at 50 µg/cm2 ([2]; Spodoptera exigua, read-out: BAW) [%] |
| --- | --- | --- | --- | --- |
| CC(C)c1ccccc1N1C(=O)CS/C1=N\C(=O)NCCc1ccc(-c2ncn(-c3ccc(OC(F)(F)F)cc3)n2)cc1 [F1, (Z)-1-(3-(2-isopropylphenyl)-4-oxothiazolidin-2-ylidene)-3-(4-(1-(4-(trifluoromethoxy)phenyl)-1H-1,2,4-triazol-3-yl)phenethyl)urea] | A (50-100) | A (50-100) | – | – |
| CC(Cc1ccc(-c2ncn(-c3ccc(OC(F)(F)F)cc3)n2)cc1)NC(=O)NC(=S)Nc1ccccc1C(C)C (stereo not drawn) [F4, N-[2-(propan-2-yl)phenyl]-N′-[1-(4-{1-[4-(trifluoromethoxy)phenyl]-1H-1,2,4-triazol-3-yl}phenyl)propan-2-yl]dicarbonimidothioic diamide] | A (50-100) | A (50-100) | – | – |
| Cc1ccc(C(C)C)c(N2C(=O)CS/C2=N\C(=O)NC(C)Cc2ccc(-c3ncn(-c4ccc(OC(F)(F)F)cc4)n3)cc2)c1 (stereo not drawn) [F8, (Z)-1-(3-(2-isopropyl-5-methylphenyl)-4-oxothiazolidin-2-ylidene)-3-(1-(4-(1-(4-(trifluoromethoxy)phenyl)-1H-1,2,4-triazol-3-yl)phenyl)propan-2-yl)urea] | A (50-100) | A (50-100) | – | – |
| CC(C)c1ccccc1NC(=S)NC(=O)N/C=C/c1ccc(-c2ncn(-c3ccc(OC(F)(F)F)cc3)n2)cc1 [F11, N-[2-(propan-2-yl)phenyl]-N′-[(E)-2-(4-{1-[4-(trifluoromethoxy)phenyl]-1H-1,2,4-triazol-3-yl}phenyl)ethenyl]dicarbonimidothioic diamide] | A (50-100) | A (50-100) | – | – |
| CC(C)c1ccccc1N1C(=O)CS/C1=N\C(=O)N/C=C/c1ccc(-c2ncn(-c3ccc(OC(F)(F)F)cc3)n2)cc1 [F12] | A (50-100) | A (50-100) | – | – |
| C/C(=C\NC(=O)/N=C1\SCC(=O)N1c1ccccc1C(C)C)c1ccc(-c2ncn(-c3ccc(OC(F)(F)F)cc3)n2)cc1 [F13] | A (50-100) | A (50-100) | – | – |
| CC(C)c1ccccc1NC(=S)NC(=O)NCc1ccc(-c2ncn(-c3ccc(OC(F)(F)C(F)(F)F)cc3)n2)cc1 [F15, N-(4-{1-[4-(pentafluoroethoxy)phenyl]-1H-1,2,4-triazol-3-yl}benzyl)-N′-[2-(propan-2-yl)phenyl]dicarbonimidothioic diamide] | A (50-100) | A (50-100) | – | – |
| Cc1ccc(C(C)C)c(NC(=S)NC(=O)NCc2ccc(-c3ncn(-c4ccc(OC(F)(F)C(F)(F)F)cc4)n3)cc2)c1 [F16, N-[5-methyl-2-(propan-2-yl)phenyl]-N′-(4-{1-[4-(pentafluoroethoxy)phenyl]-1H-1,2,4-triazol-3-yl}benzyl)dicarbonimidothioic diamide] | A (50-100) | A (50-100) | – | – |
| CC(C)c1ccccc1N1C(=O)CS/C1=N\C(=O)NCc1ccc(-c2ncn(-c3ccc(OC(F)(F)F)cc3)n2)cc1 [F17, (Z)-1-(3-(2-isopropylphenyl)-4-oxothiazolidin-2-ylidene)-3-(4-(1-(4-(trifluoromethoxy)phenyl)-1H-1,2,4-triazol-3-yl)benzyl)urea] | A (50-100) | A (50-100) | – | – |
| CC(C)c1ccccc1N1C(=O)CS/C1=N\C(=O)NCc1ccc(-c2ncn(-c3ccc(OC(F)(F)C(F)(F)F)cc3)n2)cc1 [F18, (Z)-1-(3-(2-isopropylphenyl)-4-oxothiazolidin-2-ylidene)-3-(4-(1-(4-(perfluoroethoxy)phenyl)-1H-1,2,4-triazol-3-yl)benzyl)urea] | A (50-100) | A (50-100) | – | – |
| Cc1ccc(C(C)C)c(N2C(=O)CS/C2=N\C(=O)NCc2ccc(-c3ncn(-c4ccc(OC(F)(F)C(F)(F)F)cc4)n3)cc2)c1 [F19, (Z)-1-(3-(2-isopropyl-5-methylphenyl)-4-oxothiazolidin-2-ylidene)-3-(4-(1-(4-(perfluoroethoxy)phenyl)-1H-1,2,4-triazol-3-yl)benzyl)urea] | A (50-100) | A (50-100) | – | – |
| Cc1ccc(C(C)C)c(NC(=S)NC(=O)NCc2ccc(-c3ncn(-c4ccc(OC(F)(F)F)cc4)n3)cc2)c1 [F35, N-[5-methyl-2-(propan-2-yl)phenyl]-N′-(4-{1-[4-(trifluoromethoxy)phenyl]-1H-1,2,4-triazol-3-yl}benzyl)dicarbonimidothioic diamide] | – | A (50-100) | – | – |
| Cc1ccc(-n2c(C)cs/c2=N\C(=O)NCc2ccc(-c3ncn(-c4ccc(OC(F)(F)F)cc4)n3)cc2)c(C(C)C)c1 [P20, (Z)-1-(3-(2-isopropyl-4-methylphenyl)-4-methylthiazol-2(3H)-ylidene)-3-(4-(1-(4-(trifluoromethoxy)phenyl)-1H-1,2,4-triazol-3-yl)benzyl)urea] | – | – | 50 to 100 | – |
| Cc1ccc(C(C)C)c(N2C(=O)CS/C2=N\C(=O)NCCc2cccc(-c3ncn(-c4ccc(OC(F)(F)F)cc4)n3)c2)c1 [P81, (Z)-1-(3-(2-isopropyl-5-methylphenyl)-4-oxothiazolidin-2-ylidene)-3-(3-(1-(4-(trifluoromethoxy)phenyl)-1H-1,2,4-triazol-3-yl)phenethyl)urea] | – | – | 50 to 100 | – |
| Cc1cccc(C)c1N1C(=O)CS/C1=N\C(=O)NCCCCc1ccc(-c2ncn(-c3ccc(OC(F)(F)F)cc3)n2)cc1 [P152, (Z)-1-(3-(2,6-dimethylphenyl)-4-oxothiazolidin-2-ylidene)-3-(4-(4-(1-(4-(trifluoromethoxy)phenyl)-1H-1,2,4-triazol-3-yl)phenyl)butyl)urea] | – | – | 50 to 100 | – |
| CCc1cccc(C)c1N1C(=O)CS/C1=N\C(=O)NCCCCc1ccc(-c2ncn(-c3ccc(OC(F)(F)F)cc3)n2)cc1 [P153, (Z)-1-(3-(2-ethyl-6-methylphenyl)-4-oxothiazolidin-2-ylidene)-3-(4-(4-(1-(4-(trifluoromethoxy)phenyl)-1H-1,2,4-triazol-3-yl)phenyl)butyl)urea] | – | – | 50 to 100 | – |
| Cc1ccccc1N1C(=O)CS/C1=N\C(=O)NCCCCc1cccc(-c2ncn(-c3ccc(OC(F)(F)F)cc3)n2)c1 [P170, (Z)-1-(4-oxo-3-(o-tolyl)thiazolidin-2-ylidene)-3-(4-(3-(1-(4-(trifluoromethoxy)phenyl)-1H-1,2,4-triazol-3-yl)phenyl)butyl)urea] | – | – | 50 to 100 | – |
| Cc1ccc(N2C(=O)CS/C2=N\C(=O)NCCCCc2cccc(-c3ncn(-c4ccc(OC(F)(F)F)cc4)n3)c2)c(C(C)C)c1 [P180, (Z)-1-(3-(2-isopropyl-4-methylphenyl)-4-oxothiazolidin-2-ylidene)-3-(4-(3-(1-(4-(trifluoromethoxy)phenyl)-1H-1,2,4-triazol-3-yl)phenyl)butyl)urea] | – | – | 50 to 100 | – |
| CCC(CNC(=O)/N=C1\SCC(=O)N1c1ccc(F)cc1C(C)C)c1ccc(-c2ncn(-c3ccc(OC(F)(F)F)cc3)n2)cc1 (stereo not drawn) [P1163, (Z)-1-(3-(4-fluoro-2-isopropylphenyl)-4-oxothiazolidin-2-ylidene)-3-(2-(4-(1-(4-(trifluoromethoxy)phenyl)-1H-1,2,4-triazol-3-yl)phenyl)butyl)urea] | – | – | – | 50 to 100 |

Reference: patent US20140274688A1, “MOLECULES HAVING CERTAIN PESTICIDAL UTILITIES, AND INTERMEDIATES, COMPOSITIONS, AND PROCESSES RELATED THERETO” (DOW AGROSCIENCES LLC, priority 2013, published 2014)
